Series [1] is described as follows: Static permeation study without lung cells (control, porous membrane only). It is filed as in vitro ADME. The settings on record: not told, control without lung cell barrier (porous membrane 0.4 µm, 0.6 cm^2), 100 µM apical, model parameter estimate, read-out: P12, apparent permeability from the apical to the basolateral compartment and vice versa (converted). As to the method:
The cells were cultivated in a 24-well plate (662160, Greiner bio-one, Frickenhausen, Germany) at 37 °C for five days under a physiological pH in the range of 7.0-7.4 with one CCM exchange after two days. […] The basolateral compartment was filled with fresh CCM. After model substance exposure, total apical, and basolateral CCM were collected each in a 1.5 mL tube (Kisker Biotech GmbH & Co. […] For each time point, a separate cell culture insert was used. Samples were then stored at 4 °C until further analysis via HPLC. […] After the static and fluidic permeation studies, the model substances in the apical and basolateral CCM were quantified via HPLC measurements as described in Elberskirch et al.. […] Separation was performed using a Poroshell 120 EC-C18 column (2.1 × 100 mm, 2.7 μm; 695775-902, Agilent Technologies) connected to a guard column (Poroshell 120 EC-C18, 2.1 × 5 mm, 2.7 μm, Agilent Technologies). The mobile phase consisted of three running agents: water (solvent A; sterile filtered 0.2 μm pore), acetonitrile (Solvent B; J.T. Baker), and 0.1% trifluoroacetic acid (TFA) in water (Solvent C; Fisher Scientific). The flow rate was set to 0.4 mL/min with 5 μL of the sample injected. […] For detection, a diode array detector (DAD) was used at a wavelength of 275 nm. […]

Series [2] in a line: Static permeation study with 16HBE cell monolayer on porous membrane. It is filed as in vitro ADME, human. The settings on record: human; static, with 16HBE lung cell barrier, 100 µM apical, 72 h, model parameter estimate; read-out: P12, apparent permeability from the apical to the basolateral compartment and vice versa (converted). The protocol: (§1) The bronchial cell line 16HBE was cultivated in Dulbecco's modified Eagle medium (DMEM/F12 with L-glutamine and HEPES; Gibco 11039-021, Thermo Fisher Scientific, Waltham, MA, USA), supplemented with 10% fetal bovine serum (FBS, […][…], Sigma Aldrich, St. Louis, MO, USA), 100 U/mL penicillin, and 100 μg/mL streptomycin (Gibco 15140-122, Thermo Fisher Scientific). The cells were cultivated in a humidified atmosphere at 37 °C and 5% CO2. The bronchial cell line 16HBE was obtained from Dr. […] (Cardiovascular Research Institute, University of California). […] The cells were cultivated in a 24-well plate (662160, Greiner bio-one, Frickenhausen, Germany) at 37 °C for five days under a physiological pH in the range of 7.0-7.4 with one CCM exchange after two days. […] The basolateral compartment was filled with fresh CCM. After model substance exposure, total apical, and basolateral CCM were collected each in a 1.5 mL tube ([…] Biotech GmbH & Co. […] For each time point, a separate cell culture insert was used. Samples were then stored at 4 °C until further analysis via HPLC. After the static and fluidic permeation studies, the model substances in the apical and basolateral CCM were quantified via HPLC measurements as described in […] et al.. […] The mobile phase consisted of three running agents: water (solvent A; sterile filtered 0.2 μm pore), acetonitrile (Solvent B; J.T. Baker), and 0.1% trifluoroacetic acid (TFA) in water (Solvent C; Fisher Scientific). The flow rate was set to 0.4 mL/min with 5 μL of the sample injected. […] For detection, a diode array detector (DAD) was used at a wavelength of 275 nm. To model the static in vitro permeation experiments (control and cell experiments), a bidirectional single-barrier model was implemented as a two-compartment ODE system. […] Thereby, […],i reflects the compound permeability through all present permeation barriers in the respective experimental setup, such as unstirred water layers, the porous filter membrane, and cell monolayer (apparent permeability). […] During parameter estimation in the static permeation study, permeability parameters ([…],i) were estimated by fitting the model-simulated concentrations to the observed experimental data via first-order conditional estimation method with interaction (FOCE-I) in […]®, using a combined proportional and additive residual error model (Equation (6)).

The next series relates to 16HBE cells. The description is as above. In kind it is in vitro ADME, human. The settings on record: for potential metabolism in the pulmonary epithelial cells: static cellular experiments, from mass balance; for active transport in 16HBE cells: static cellular study, equilibrium with similar apical and basolateral concentrations. The protocol: as §1
The nature of series [3]: Fluidic permeation study (QuasiVivo QV600) with 16HBE cell barrier. In kind it is in vitro ADME. The settings on record: human; fluidic cell experiment, 200 µL/min; static P12 multiplied by factor F; read-out: P16, apparent permeability between the apical and basolateral chambers in the fluidic system (converted). The protocol: Fluidic permeation studies were performed in the MCmB QuasiVivo® […]), which was assembled according to the manufacturer's instructions. An apical and basolateral flow with a flow rate of 200 μL/min was used (Figure 7b). […] The apical circuit consisted of the apical reservoir bottle, the apical part of the pulmonary chamber, the pump, a three-way cock (B.Braun 4095111; dosing/sampling port; in order of medium flow), and connecting tubes. The basolateral circuit comprised the basolateral reservoir bottle, the basolateral part of the pulmonary chamber, a second chamber allowing the integration of additional cell tissues, the pump, the basolateral sampling port (in order of medium flow), and connecting tubes (Figure 8). Different tubing ([…]-2 Tubing set; […] VWR 228-1066, Radnor, PA, USA) was used to establish the optimal connection between the reservoir bottles, cell chambers, pump, and sampling ports. For the in vitro cell permeation studies, 4.3 × 10^4 16HBE cells were seeded in a cell culture insert with a pore size of 0.4 μm and a growth area of 0.6 cm^2 (PIHP 012 50, Merck Millipore) and cultivated at 37 °C for five days. […] After the static and fluidic permeation studies, the model substances in the apical and basolateral CCM were quantified via HPLC measurements as described in Elberskirch et al.. […]

Series [4] concerns human bronchial epithelial cell line Calu-3. More on the design: method as in earlier work. The settings on record: Calu-3 cells; ref 5 (Mathias et al.); cited from earlier work.
For series [5] the following is noted: cited from earlier work.

SMILES strings stand for the structures. Where a name gives a salt, the structure may show the parent alone.

Take `Cn1c(=O)c2c(ncn2C)n(C)c1=O` [caffeine]: the Papp A→B at 72 h, 100 µM in series [1] is 54.5 ×10⁻⁶ cm/s. Moreover, the Papp A→B at 72 h, 100 µM in series [2] was 43.7 ×10⁻⁶ cm/s. Further, in the series with 16HBE cells, the “potential metabolism in the pulmonary epithelial cells” value is reported as “negligible” and the “active transport in 16HBE cells” value is “neither caffeine nor diclofenac were subject to active transport”. The Papp at 72 h, 100 µM in series [3] was 14.9 ×10⁻⁶ cm/s. The “apparent permeability (published value)” value in series [4] is 21.8 ×10⁻⁶ cm/s.
Regarding `O=C(O)Cc1ccccc1Nc1c(Cl)cccc1Cl` [diclofenac, diclofenac sodium salt], the Papp A→B at 72 h, 100 µM in series [1] was 41.8 ×10⁻⁶ cm/s. For the same compound, the Papp A→B at 72 h, 100 µM in series [2] is 23 ×10⁻⁶ cm/s. In the series on 16HBE cells, the “potential metabolism in the pulmonary epithelial cells” value is recorded as “negligible” and the “active transport in 16HBE cells” value was “neither caffeine nor diclofenac were subject to active transport”. In series [3], the Papp at 72 h, 100 µM is 3.92 ×10⁻⁶ cm/s. In addition, the logP in series [5] is recorded as ~ 4.

The values above are taken from article PMC8876625 (Pharmaceuticals, 2022).
